In US7314953B2, “Treatment of lung cells with histone deacetylase inhibitors” (Errant Gene Therapeutics, LLC, priority 2001, dated 2008):

Legend:
CF HBE cells = experiment: Short circuit current (Ussing chamber), electrogenic sodium transport in CF HBE cells; type: cell-based, human; settings: HBE cells treated for 72 hours
non-CF HBE cells = experiment: Short circuit current (Ussing chamber), electrogenic sodium transport in non-CF HBE cells derived from COPD patients; type: cell-based, human; settings: Homo sapiens; 1 μM, non-CF HBE cells
Procedure: Studies were carried out using human bronchial epithelial (HBE) cells derived from five cystic fibrosis (CF) patients and five nonCF patients. The protocol is described in Devor, D. C. et al., “Pharmacological modulation of ion transport across wild-type and DeltaF508 CFTR-expressing human bronchial epithelia,” Am. J. Physiol. 279: C461-C479, 2000.
Cells were isolated and grown on filters for short circuit current (Isc) studies. Cells were mounted in modified Ussing chambers and the Isc monitored. The change in Isc in response to amiloride (10 μM) was taken as a measure of net electrogenic sodium transport after equilibration for 20 minutes. Forskolin (2 μM), UTP (100 μM), and genistein (30 μM) were used to stimulate anion secretion. Results from 6 to 12 similar experiments were obtained.
7-Phenyl-2,4,6-heptatrienoylhydroxamic acid ([…]) was added to the culture medium and the cells were incubated for 24, 48, and 72 hours. Cells were fed every 24 hours with fresh media containing the compound. Control cells received an equivalent amount of vehicle (DMSO). Short circuit current measurements were also made on T84 cells, a human colonic epithethial cell line that secretes chloride by a CFTR mediated mechanism, and on M1 cells, a mouse kidney cell line that absorbs sodium by an ENaC mediated mechanism.
Table 3 sumarizes the results of treating non-CF cells derived from COPD patients with 30 μM 7-phenyl-2,4,6-heptatrienoylhydroxamic acid for 72 hours. Electrogenic sodium transport was estimated from the amiloride (5 μM) sensitive short circuit current. Anion secretion was estimated from the forskolin (2 μM) stimulated short circuit current after the addition of amiloride. The treatment of cells with 30 μM 7-phenyl-2,4,6-heptatrienoylhydroxamic acid for 72 hours caused an inhibition in the amiloride sensitive sodium transport of nearly 80%. This effect was concentration and dose dependent with a half-maximal inhibition concentration of 13 μM±3 μM and a half-maximal inhibition at 24 hours.

histone deacetylase = histone deacetylase inhibitor; cited from earlier work

Q: What does the source list for `CC(/C=C/C(=O)NO)=C\[C@@H](C)C(=O)c1ccc(N(C)C)cc1` [Trichostatin, reference compound]?
A: effect on sodium transport (CF HBE cells; 3 nM, 30 nM, and 100 nM): no effect; inhibition at 1 µM (CF HBE cells; Homo sapiens, 1 μM): 84%; inhibition at 1 µM (non-CF HBE cells): 70%; Ki (histone deacetylase): low
